Reference: the supplement of paper PMC10307832

Assays:
Experiment in all cases: relative viability (nuclei count vs DMSO), 5 days (fraction); higher = more cells survive
[1] = compound: COc1cc(Nc2c(C#N)cnc3cc(OCCCN4CCN(C)CC4)c(OC)cc23)c(Cl)cc1Cl [Bosutinib] + Cc1nc(Nc2ncc(C(=O)Nc3c(C)cccc3Cl)s2)cc(N2CCN(CCO)CC2)n1 [Dasatinib] (partner 0.075 µM)
Method in brief: (§1)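 Each reported value is a median over duplicate plates. It expresses relative viability: treated-well nuclei count divided by vehicle-well nuclei count. Lung cancer cell lines in 1536-well plates were dosed by pin tool a day after seeding, alone with one drug or with a fixed anchor-drug dose plus five library-drug doses (not always all listed) in √10 steps, and nuclei were counted after 5 days.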

[2] = compound: COc1cc(Nc2c(C#N)cnc3cc(OCCCN4CCN(C)CC4)c(OC)cc23)c(Cl)cc1Cl [Bosutinib] + NC(=O)Nc1cc(-c2cccc(F)c2)sc1C(=O)N[C@H]1CCCNC1 [AZD7762] (partner 0.2 µM)
Method in brief: as §1

[3] = compound: COc1cc(Nc2c(C#N)cnc3cc(OCCCN4CCN(C)CC4)c(OC)cc23)c(Cl)cc1Cl [Bosutinib] + Cc1cc(Nc2cc(N3CCN(C)CC3)nc(Sc3ccc(NC(=O)C4CC4)cc3)n2)n[nH]1 [Tozasertib] (partner 0.1 µM)
Method in brief: as §1

[4] = compound: COc1cc(Nc2c(C#N)cnc3cc(OCCCN4CCN(C)CC4)c(OC)cc23)c(Cl)cc1Cl [Bosutinib] + CC(=O)c1c(C)c2cnc(Nc3ccc(N4CCNCC4)cn3)nc2n(C2CCCC2)c1=O [Palbociclib] (partner 0.5 µM)
Method in brief: as §1

[5] = compound: COc1cc(Nc2c(C#N)cnc3cc(OCCCN4CCN(C)CC4)c(OC)cc23)c(Cl)cc1Cl [Bosutinib] + CC(=O)Nc1cccc(-n2c(=O)n(C3CC3)c(=O)c3c(Nc4ccc(I)cc4F)n(C)c(=O)c(C)c32)c1 [Trametinib] (partner 0.02 µM)
Method in brief: as §1

Row | Cell Line | relative viability ([1]; first compound 0.01 µM) | relative viability ([1]; first compound 0.03162 µM) | relative viability ([1]; first compound 0.1 µM) | relative viability ([1]; first compound 1 µM) | relative viability ([2]; first compound 0.01 µM) | relative viability ([2]; first compound 0.03162 µM) | relative viability ([2]; first compound 0.1 µM) | relative viability ([2]; first compound 1 µM) | relative viability ([3]; first compound 0.01 µM) | relative viability ([3]; first compound 0.03162 µM) | relative viability ([3]; first compound 0.1 µM) | relative viability ([3]; first compound 1 µM) | relative viability ([4]; first compound 0.01 µM) | relative viability ([4]; first compound 0.03162 µM) | relative viability ([4]; first compound 0.1 µM) | relative viability ([4]; first compound 1 µM) | relative viability ([5]; first compound 0.01 µM) | relative viability ([5]; first compound 0.03162 µM) | relative viability ([5]; first compound 0.1 µM) | relative viability ([5]; first compound 1 µM)
1 | 201T | 0.612 | 0.571 | 0.57 | 0.544 | 0.581 | 0.654 | 0.603 | 0.62 | 0.92 | 0.913 | 0.951 | 0.713 | 0.355 | 0.345 | 0.35 | 0.338 | 0.745 | 0.696 | 0.682 | 0.708
2 | NCI-H3122 | 0.894 | 0.716 | 0.768 | 0.781 | 1.01 | 0.884 | 0.947 | 0.975 | 0.495 | 0.547 | 0.405 | 0.431 | 0.214 | 0.18 | 0.201 | 0.218 | 0.203 | 0.273 | 0.205 | 0.256
3 | NCI-H727 | 0.374 | 0.321 | 0.32 | 0.31 | 0.549 | 0.59 | 0.641 | 0.451 | 0.577 | 0.598 | 0.549 | 0.441 | 0.642 | 0.673 | 0.63 | 0.632 | 0.377 | 0.359 | 0.378 | 0.305
4 | NCI-H441 | 0.55 | 0.667 | 0.676 | 0.848 | 1.3 | 1.02 | 1.05 | 1.09 | 0.673 | 0.589 | 0.599 | 0.823 | 0.193 | 0.217 | 0.262 | 0.22 | 0.509 | 0.476 | 0.436 | 0.379
5 | HCC-44 |  |  |  |  | 1.02 | 1.01 | 1.01 | 1.04 | 1.07 | 1.18 | 1.09 | 0.685 | 0.985 | 0.967 | 0.964 | 0.865 | 1.03 | 1.04 | 1.09 | 1.05
6 | SK-LU-1 | 0.221 | 0.174 | 0.186 | 0.255 |  |  |  |  | 0.305 | 0.289 | 0.341 | 0.283 | 0.399 | 0.436 | 0.397 | 0.294 | 0.43 | 0.504 | 0.498 | 0.344
7 | NCI-H1703 |  |  |  |  | 0.12 | 0.132 | 0.124 | 0.133 |  |  |  |  |  |  |  |  |  |  |  | 
8 | NCI-H2023 | 0.683 | 0.599 | 0.65 | 0.583 |  |  |  |  | 0.295 | 0.462 | 0.399 | 0.233 | 0.373 | 0.368 | 0.387 | 0.297 | 0.647 | 0.474 | 0.537 | 0.434
9 | NCI-H661 | 0.947 | 0.883 | 0.884 | 0.814 |  |  |  |  | 0.34 | 0.362 | 0.385 | 0.425 | 0.392 | 0.398 | 0.434 | 0.363 | 0.616 | 0.554 | 0.565 | 0.439
10 | COR-L 105 | 0.383 | 0.363 | 0.397 | 0.353 |  |  |  |  | 0.344 | 0.371 | 0.325 | 0.308 | 0.401 | 0.385 | 0.443 | 0.412 | 0.51 | 0.381 | 0.42 | 0.389
11 | NCI-H2228 | 0.494 | 0.474 | 0.56 | 0.62 |  |  |  |  | 0.313 | 0.319 | 0.306 | 0.287 | 0.955 | 0.943 | 0.955 | 0.859 | 0.54 | 0.599 | 0.494 | 0.355
12 | NCI-H596 | 0.595 | 0.721 | 0.704 | 0.637 | 1.08 | 1.07 | 1.08 | 0.918 | 1.06 | 0.828 | 0.893 | 0.788 |  |  |  |  | 0.842 | 0.765 | 0.825 | 0.663
13 | NCI-H1650 | 0.357 | 0.317 | 0.375 | 0.457 |  |  |  |  | 0.344 | 0.407 | 0.36 | 0.295 | 0.343 | 0.315 | 0.304 | 0.188 | 0.532 | 0.584 | 0.6 | 0.312
14 | NCI-H1792 | 0.805 | 0.796 | 0.875 | 0.781 | 0.641 | 0.543 | 0.778 | 0.273 |  |  |  |  | 0.686 | 0.588 | 0.724 | 0.728 | 0.478 | 0.416 | 0.437 | 0.316
15 | SK-MES-1 | 0.372 | 0.412 | 0.393 | 0.392 |  |  |  |  | 0.95 | 0.927 | 0.844 | 0.854 | 0.329 | 0.327 | 0.326 | 0.295 | 0.55 | 0.547 | 0.547 | 0.39
16 | UMC-11 | 0.409 | 0.454 | 0.456 | 0.455 |  |  |  |  | 0.202 | 0.191 | 0.189 | 0.214 | 0.366 | 0.344 | 0.33 | 0.279 | 0.724 | 0.723 | 0.686 | 0.678
17 | NCI-H1563 | 0.444 | 0.47 | 0.446 | 0.472 |  |  |  |  |  |  |  |  |  |  |  |  |  |  |  | 
18 | COR-L23 | 0.551 | 0.537 | 0.501 | 0.619 |  |  |  |  | 0.195 | 0.236 | 0.194 | 0.198 | 0.275 | 0.366 | 0.22 | 0.322 | 0.706 | 0.548 | 0.568 | 0.541
19 | SW 1573 | 0.459 | 0.553 | 0.505 | 0.583 |  |  |  |  | 0.24 | 0.166 | 0.119 | 0.202 | 0.418 | 0.419 | 0.365 | 0.4 | 0.571 | 0.614 | 0.652 | 0.504
